Data set [1] in a line: LNP particle size by dynamic light scattering (Zetasizer Nano ZS). It counts as physicochemical. As to conditions: N/P ratio 3:1, DMPE-PEG2000. The procedure:
(§1) A solution of eGFP mRNA (purchased from TriLink Biotechnologies) in citrate buffer was prepared by mixing mRNA dissolved in MilliQ-water, 100 mM citrate buffer (pH 3) and MilliQ-water to give a solution of 50 mM citrate. Lipid solution in ethanol (99.5%) was prepared with four different lipid components: ionizable lipid (see Table 1); cholesterol (Sigma-Aldrich); DSPC (distearoyl phosphatidyl choline, Avanti Polar Lipids Inc); and a polymer-conjugated lipid (see Table 1). The ratio of lipids in all experiments was ionizable lipid/cholesterol/DSPC/polymer-conjugated lipid (50/38.5/10/1.5 mol %). The total concentration of lipids in all experiments was 12.5 mM.
(§2) The mRNA and lipid solutions were mixed in a NanoAssemblr (Precision Nanosystems, Vancouver, BC, Canada) microfluidic mixing system at a mixing ratio of Aq:EtOH=3:1 and a constant flow rate of 12 mL/min. The mRNA in citrate buffer solution was prepared such that, at the time of mixing the ratio between the nitrogen atoms on the ionizable lipid and phosphorus atoms (N/P ratio) on the mRNA chain was either 3:1 or 6:1 (see Table 1).
The first 0.2-0.35 mL and the last 0.05-0.1 mL of the LNP suspension prepared were discarded while the rest of the volume was collected as the sample fraction. The size of the mRNA lipid nanoparticles was determined by dynamic light scattering measurements using a Zetasizer Nano ZS from Malvern Instruments Ltd, giving directly the z-average particle diameter. The number-weighted particle size distributions and averages were calculated using a particle refractive index of 1.45.

Another data set relates to Female BALB/c mice. Nature of the data set: eGFP expression in the liver at 24 hours after intravenous administration of LNP formulations to mouse (ELISA). It counts as in vivo. As to conditions: LNP N/P 3:1, DMPE-PEG2000. The source says: Female BALB/c mice were purchased (SPF (Beijing) Laboratory Animal Technology Co. Ltd.) and on arrival were caged in groups of 4 on corncob bedding, with normal diet and were provided tap drinking water ad libitum that was purified and autoclaved before being offered to the animal. The environment was maintained at a target temperature of […] and relative humidity of 40-80%, with a 12-hour light/dark cycle. Animals were acclimatised to the housing conditions for at least 7 days prior to any experimental procedures and were approximately 6-8 weeks of age at the start of dosing
Animals were assigned to respective groups such that the mean body weights for each treatment groups will be equal. N=4 for each treatment group.
Formulations 1, 3, 4, 5, and 6 from Example 58 were each dosed intravenously: Each mouse was removed from its cage and restrained, and then dosed with a slow IV bolus of a formulation in the lateral tail vein at a dose […] of 0.3 mg/kg.
All animals were sacrificed 24 hours after dosing and flowing blood sampling the liver for the animals dosed by the IV route and the liver and muscle at the dose site for the IM dosed animals were harvested for eGFP analysis by ELISA.
Additional LNP formulations were prepared according to the procedures described in Example 46. These formulations were tested using the same protocol as described herein. The results of eGFP expression in the liver at 24 hours after intravenous administration of the formulations were summarized in Tables 3, 4, 5 and 6 below.

The nature of data set [2]: mRNA encapsulation efficiency of LNP formulations (Quant-it Ribogreen assay with Triton-X100). The class given is physicochemical. Conditions: N/P ratio 3:1, DMPE-PEG2000. The procedure:
as §1, §2
The final mRNA concentration and encapsulation efficiency percentage (% EE) was measured by Quant-it Ribogreen Assay Kit (ThermoFischer Scientific Inc.) using Triton-X100 to disrupt the LNPs. The mRNA encapsulation efficiency was determined according to the following equation: […]

Take `CCCCCCCCC(CCCCCCCC)OC(=O)CCCCCCCC(CCCCCCCC(=O)OCC(C)CCCCCCC)NCC1CCOC1` (centres unmarked) [Compound 21, 1-(heptadecan-9-yl) 17-(2-methylnonyl) 9-(((tetrahydrofuran-3-yl)methyl)amino)heptadecanedioate]: in data set [1] (Table 5), the “<d>N (nm)” value is listed as 57 nm and the “<d>Z (nm)” value stood at 72 nm. For the same compound, in the data set with Female BALB/c mice (Table 5, 0.3 mg/kg), the “Liver eGFP protein (ng/g tissue)” value is reported as 4103.6 ng/g tissue. Also, the “% EE” value in data set [2] (Table 5) is 97%.
For `CCCCCCCCC(CCCCCCCC)OC(=O)CCCCCCCC(CCCCCCCC(=O)OCC(C)CCCCCCC)NC1CC2(COC2)C1` (centres unmarked) [Compound 22, 1-(heptadecan-9-yl) 17-(2-methylnonyl) 9-((2-oxaspiro[3.3]heptan-6-yl)amino)heptadecanedioate] the same measures were 63 nm, 90 nm, 4570.6 ng/g tissue and 95%.
With `CCCCCCCCC(CCCCCCCC)OC(=O)CCCCCCC(CCCCCCC(=O)OC(CCCCCCCC)CCCCCCCC)NC1CC2(COC2)C1` [Compound 23, di(heptadecan-9-yl) 8-((2-oxaspiro[3.3]heptan-6-yl)amino)pentadecanedioate], in data set [1] (Table 4), the “<d>N (nm)” value is 45 nm and the “<d>Z (nm)” value is listed as 62 nm. Moreover, the “Liver eGFP protein (ng/g tissue)” value in the data set on Female BALB/c mice (Table 4, 0.3 mg/kg) is on record as 2318.8 ng/g tissue. In data set [2] (Table 4), the “% EE” value is 96%.
For `CCCCCCCCCOC(=O)CCCCCCC(CCCCCCC(=O)OC(CCCCCCCC)CCCCCCCC)NC1CC2(COC2)C1` (centres unmarked) [Compound 24, 1-(heptadecan-9-yl) 15-nonyl 8-((2-oxaspiro[3.3]heptan-6-yl)amino)pentadecanedioate] the same measures were 52 nm, 71 nm, 748.9 ng/g tissue and 94%.
Take `CCCCCCCCC(C)OC(=O)CCCCCCC(CCCCCCC(=O)OC(CCCCCCCC)CCCCCCCC)NC1CC2(COC2)C1` (centres unmarked) [Compound 25, 1-(decan-2-yl) 15-(heptadecan-9-yl) 8-((2-oxaspiro[3.3]heptan-6-yl)amino)pentadecanedioate]: in data set [1] (Table 4), the “<d>N (nm)” value is reported as 50 nm and the “<d>Z (nm)” value was 69 nm. Besides, the “Liver eGFP protein (ng/g tissue)” value in the data set on Female BALB/c mice (Table 4, 0.3 mg/kg) was found to be 15961.7 ng/g tissue. Further, the “% EE” value in data set [2] (Table 4) was determined as 94%.
For `CCCCCCCCC(CCCCCCCC)OC(=O)CCCCCCC(CCCCCCC(=O)OCCCCCCCC(C)C)NC1CC2(COC2)C1` (centres unmarked) [Compound 26, 1-(heptadecan-9-yl) 15-(8-methylnonyl) 8-((2-oxaspiro[3.3]heptan-6-yl)amino)pentadecanedioate] the same measures were 50 nm, 75 nm, 824.8 ng/g tissue and 94%.
On the same counts, the results for `CCCCCCCCC(CCCCCCCC)OC(=O)CCCCCCC(CCCCCCC(=O)OCCC(CCCCCCC)CCCCCCC)NC1CC2(COC2)C1` (centres unmarked) [Compound 27, 1-(heptadecan-9-yl) 15-(3-heptyldecyl) 8-((2-oxaspiro[3.3]heptan-6-yl)amino)pentadecanedioate] are 55 nm, 98 nm, 4982.6 ng/g tissue and 97%.
For `CCCCCCCC(CCCCCCC)COC(=O)CCCCCCC(CCCCCCC(=O)OCC(CCCCCCC)CCCCCCC)NC1CC2(COC2)C1` [Compound 28, Bis(2-heptylnonyl) 8-((2-oxaspiro[3.3]heptan-6-yl)amino)pentadecanedioate] the same measures were 80 nm, 129 nm, 9557.1 ng/g tissue and 97%.
Turning to `CCCCCCCCC(C)OC(=O)CCCCCCC(CCCCCCC(=O)OCC(CCCCCCC)CCCCCCC)NC1CC2(COC2)C1` (centres unmarked) [Compound 29, 1-(decan-2-yl) 15-(2-heptylnonyl) 8-((2-oxaspiro[3.3]heptan-6-yl)amino)pentadecanedioate], in data set [1] (Table 4), the “<d>N (nm)” value amounted to 51 nm and the “<d>Z (nm)” value was found to be 71 nm. For the same compound, in the data set on Female BALB/c mice (Table 4, 0.3 mg/kg), the “Liver eGFP protein (ng/g tissue)” value stood at 1288.4 ng/g tissue. Besides, in data set [2] (Table 4), the “% EE” value is recorded as 90%.
For `CCCCCCCCC(CCCCCCCC)OC(=O)CCCCCCCC(CCCCCCCC(=O)OC(CCCCCCCC)CCCCCCCC)NC1CC2(COC2)C1` [Compound 31, Di(heptadecan-9-yl) 9-((2-oxaspiro[3.3]heptan-6-yl)amino)heptadecanedioate] the same measures were 47 nm, 62 nm, 1319.3 ng/g tissue and 94%.
With `CCCCCCCCC(C)OC(=O)CCCCCCCC(CCCCCCCC(=O)OC(CCCCCCCC)CCCCCCCC)NC1CC2(COC2)C1` (centres unmarked) [Compound 32, 1-(decan-2-yl) 17-(heptadecan-9-yl) 9-((2-oxaspiro[3.3]heptan-6-yl)amino)heptadecanedioate], in data set [1] (Table 4), the “<d>N (nm)” value is 56 nm and the “<d>Z (nm)” value was determined as 72 nm. Also, the “Liver eGFP protein (ng/g tissue)” value with Female BALB/c mice (Table 4, 0.3 mg/kg) stood at 16518.2 ng/g tissue. The “% EE” value in data set [2] (Table 4) is reported as 94%.
Consider `CCCCCCCCC(CCCCCCCC)OC(=O)CCCCCCCC(CCCCCCCC(=O)OCC(CCCCCCC)CCCCCCC)NC1CC2(COC2)C1` (centres unmarked) [Compound 33, 1-(heptadecan-9-yl) 17-(2-heptylnonyl) 9-((2-oxaspiro[3.3]heptan-6-yl)amino)heptadecanedioate], for which, in data set [1] (Table 4), the “<d>N (nm)” value turned out to be 53 nm and the “<d>Z (nm)” value worked out at 67 nm. Moreover, in the data set on Female BALB/c mice (Table 4, 0.3 mg/kg), the “Liver eGFP protein (ng/g tissue)” value is 1056.2 ng/g tissue. In addition, the “% EE” value in data set [2] (Table 4) stood at 97%.
`CCCCCCC(CCCCCC)COC(=O)CCCCCCCC(CCCCCCCC(=O)OCC(CCCCCC)CCCCCC)NC1CC2(COC2)C1` [Compound 34, Bis(2-hexyloctyl) 9-((2-oxaspiro[3.3]heptan-6-yl)amino)heptadecanedioate]: in data set [1] (Table 4), the “<d>N (nm)” value is 51 nm and the “<d>Z (nm)” value worked out at 68 nm. Moreover, in the data set on Female BALB/c mice (Table 4, 0.3 mg/kg), the “Liver eGFP protein (ng/g tissue)” value was 11015.4 ng/g tissue. Further, the “% EE” value in data set [2] (Table 4) is on record as 96%.
Turning to `CCCCCCCCC(C)OC(=O)CCCCCCCC(CCCCCCCC(=O)OC(CCCCCCCC)CCCCCCCC)NCC1CCOCC1` (centres unmarked) [Compound 35, 1-(decan-2-yl) 17-(heptadecan-9-yl) 9-(((tetrahydro-2H-pyran-4-yl)methyl)amino)heptadecanedioate], in data set [1] (Table 5), the “<d>N (nm)” value is listed as 59 nm and the “<d>Z (nm)” value came to 77 nm. Besides, in the data set with Female BALB/c mice (Table 5, 0.3 mg/kg), the “Liver eGFP protein (ng/g tissue)” value stood at 5974.6 ng/g tissue. For the same compound, the “% EE” value in data set [2] (Table 5) turned out to be 95%.
On the same counts, the results for `CCCCCCCCC(C)OC(=O)CCCCCCCC(CCCCCCCC(=O)OC(CCCCCCCC)CCCCCCCC)NCC1CCOC1` (centres unmarked) [Compound 36, 1-(decan-2-yl) 17-(heptadecan-9-yl) 9-(((tetrahydrofuran-3-yl)methyl)amino)heptadecanedioate] are 57 nm, 73 nm, 6133.5 ng/g tissue and 96%.
On to `CCCCCCCCC(C)OC(=O)CCCCCCCC(CCCCCCCC(=O)OC(CCCCCCCC)CCCCCCCC)NCC1COC1` (centres unmarked) [Compound 37, 1-(decan-2-yl) 17-(heptadecan-9-yl) 9-((oxetan-3-ylmethyl)amino)heptadecanedioate], for which, in data set [1] (Table 5), the “<d>N (nm)” value is 47 nm and the “<d>Z (nm)” value turned out to be 60 nm. The “Liver eGFP protein (ng/g tissue)” value with Female BALB/c mice (Table 5, 0.3 mg/kg) stood at 1225.5 ng/g tissue. In addition, in data set [2] (Table 5), the “% EE” value is listed as 93%.
Consider `CCCCCCCCC(CC)OC(=O)CCCCCCCC(CCCCCCCC(=O)OC(CCCCCCCC)CCCCCCCC)NC1CC2(COC2)C1` (centres unmarked) [Compound 38, 1-(heptadecan-9-yl) 17-(undecan-3-yl) 9-((2-oxaspiro[3.3]heptan-6-yl)amino)heptadecanedioate], for which, in data set [1] (Table 5), the “<d>N (nm)” value was determined as 61 nm and the “<d>Z (nm)” value is reported as 76 nm. Also, in the data set with Female BALB/c mice (Table 5, 0.3 mg/kg), the “Liver eGFP protein (ng/g tissue)” value was determined as 9730.7 ng/g tissue. In addition, in data set [2] (Table 5), the “% EE” value was 97%.
